ChEMBL document CHEMBL4507276 (2021)

Experiments:
Settings in all cases: Compound concentration 3.0 uM
[1] = target: Tyrosine-protein kinase Lyn (Homo sapiens) (UniProt P07948); assay: LYN B Invitrogen selectivity data (BI)
[2] = target: T1, Tyrosine-protein kinase JAK3 (Homo sapiens) (UniProt P52333); assay: JAK3 Invitrogen selectivity data (BI)
T1 sequence (whole entry): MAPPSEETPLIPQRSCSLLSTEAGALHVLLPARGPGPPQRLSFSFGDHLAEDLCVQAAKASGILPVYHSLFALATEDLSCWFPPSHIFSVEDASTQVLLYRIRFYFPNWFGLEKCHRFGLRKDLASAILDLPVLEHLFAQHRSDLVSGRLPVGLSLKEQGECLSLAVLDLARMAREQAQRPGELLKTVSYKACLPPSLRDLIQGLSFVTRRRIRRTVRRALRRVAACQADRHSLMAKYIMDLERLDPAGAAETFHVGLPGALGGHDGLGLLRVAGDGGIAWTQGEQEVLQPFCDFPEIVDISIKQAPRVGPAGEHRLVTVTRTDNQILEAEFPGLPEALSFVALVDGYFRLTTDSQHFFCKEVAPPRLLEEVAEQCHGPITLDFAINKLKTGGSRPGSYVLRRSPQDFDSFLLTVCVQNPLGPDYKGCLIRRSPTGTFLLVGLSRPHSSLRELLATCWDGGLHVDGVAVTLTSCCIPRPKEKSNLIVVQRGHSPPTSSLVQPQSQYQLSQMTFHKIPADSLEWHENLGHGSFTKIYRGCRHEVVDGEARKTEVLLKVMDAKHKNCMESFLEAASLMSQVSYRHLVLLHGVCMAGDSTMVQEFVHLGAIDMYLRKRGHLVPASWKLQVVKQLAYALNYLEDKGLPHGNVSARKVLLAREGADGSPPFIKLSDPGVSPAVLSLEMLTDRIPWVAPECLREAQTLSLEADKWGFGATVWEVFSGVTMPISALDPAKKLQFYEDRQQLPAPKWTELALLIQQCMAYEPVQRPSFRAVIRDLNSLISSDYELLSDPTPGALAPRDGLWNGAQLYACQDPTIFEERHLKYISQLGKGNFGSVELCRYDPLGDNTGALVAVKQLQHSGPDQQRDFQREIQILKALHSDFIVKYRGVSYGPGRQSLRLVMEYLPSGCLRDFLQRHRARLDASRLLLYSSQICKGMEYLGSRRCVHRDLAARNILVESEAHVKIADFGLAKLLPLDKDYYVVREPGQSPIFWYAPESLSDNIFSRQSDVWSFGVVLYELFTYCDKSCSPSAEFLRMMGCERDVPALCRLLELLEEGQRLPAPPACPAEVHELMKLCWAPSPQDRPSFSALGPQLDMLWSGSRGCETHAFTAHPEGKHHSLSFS

[3] = target: T2, Mitogen-activated protein kinase kinase kinase 5 (Homo sapiens) (UniProt Q99683); assay: MAP3K5 Invitrogen selectivity data (BI)
T2 sequence (whole entry): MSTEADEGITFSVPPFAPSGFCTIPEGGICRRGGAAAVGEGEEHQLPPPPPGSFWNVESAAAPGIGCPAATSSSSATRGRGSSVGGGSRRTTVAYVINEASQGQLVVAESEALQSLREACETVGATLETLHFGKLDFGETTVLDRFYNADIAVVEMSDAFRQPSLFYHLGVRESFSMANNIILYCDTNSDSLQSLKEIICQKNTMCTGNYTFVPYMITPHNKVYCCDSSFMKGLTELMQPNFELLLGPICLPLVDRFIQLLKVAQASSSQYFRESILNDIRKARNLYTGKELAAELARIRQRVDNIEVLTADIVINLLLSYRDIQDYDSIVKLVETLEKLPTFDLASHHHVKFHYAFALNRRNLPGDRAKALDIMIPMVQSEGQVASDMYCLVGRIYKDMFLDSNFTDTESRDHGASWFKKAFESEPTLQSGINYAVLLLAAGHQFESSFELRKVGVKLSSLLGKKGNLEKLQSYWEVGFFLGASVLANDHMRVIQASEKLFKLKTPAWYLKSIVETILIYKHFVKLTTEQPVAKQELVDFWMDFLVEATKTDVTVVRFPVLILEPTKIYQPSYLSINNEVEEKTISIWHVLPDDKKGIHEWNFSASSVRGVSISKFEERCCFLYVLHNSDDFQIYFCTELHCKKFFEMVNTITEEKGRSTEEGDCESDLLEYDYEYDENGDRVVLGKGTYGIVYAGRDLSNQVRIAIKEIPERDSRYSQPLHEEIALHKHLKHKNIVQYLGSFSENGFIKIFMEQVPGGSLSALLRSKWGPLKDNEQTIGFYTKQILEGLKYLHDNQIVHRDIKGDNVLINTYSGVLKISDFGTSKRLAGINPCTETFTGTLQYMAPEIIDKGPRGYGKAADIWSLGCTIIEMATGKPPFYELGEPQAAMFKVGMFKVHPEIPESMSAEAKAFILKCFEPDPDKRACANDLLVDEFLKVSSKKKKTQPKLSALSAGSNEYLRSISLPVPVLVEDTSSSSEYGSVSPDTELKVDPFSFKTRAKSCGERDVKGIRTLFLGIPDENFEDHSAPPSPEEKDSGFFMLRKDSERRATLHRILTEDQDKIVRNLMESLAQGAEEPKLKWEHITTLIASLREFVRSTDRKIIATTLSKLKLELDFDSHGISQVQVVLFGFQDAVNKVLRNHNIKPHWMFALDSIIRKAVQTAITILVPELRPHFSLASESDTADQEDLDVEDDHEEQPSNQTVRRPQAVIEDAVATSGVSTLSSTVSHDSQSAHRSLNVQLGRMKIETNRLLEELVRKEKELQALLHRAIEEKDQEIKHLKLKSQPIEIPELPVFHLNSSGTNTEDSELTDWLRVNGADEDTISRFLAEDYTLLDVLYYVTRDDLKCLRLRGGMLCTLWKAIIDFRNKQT

Measured: residual activity

Chain of Tyrosine-protein kinase Lyn (Homo sapiens) (P07948 2-512 limits assumed): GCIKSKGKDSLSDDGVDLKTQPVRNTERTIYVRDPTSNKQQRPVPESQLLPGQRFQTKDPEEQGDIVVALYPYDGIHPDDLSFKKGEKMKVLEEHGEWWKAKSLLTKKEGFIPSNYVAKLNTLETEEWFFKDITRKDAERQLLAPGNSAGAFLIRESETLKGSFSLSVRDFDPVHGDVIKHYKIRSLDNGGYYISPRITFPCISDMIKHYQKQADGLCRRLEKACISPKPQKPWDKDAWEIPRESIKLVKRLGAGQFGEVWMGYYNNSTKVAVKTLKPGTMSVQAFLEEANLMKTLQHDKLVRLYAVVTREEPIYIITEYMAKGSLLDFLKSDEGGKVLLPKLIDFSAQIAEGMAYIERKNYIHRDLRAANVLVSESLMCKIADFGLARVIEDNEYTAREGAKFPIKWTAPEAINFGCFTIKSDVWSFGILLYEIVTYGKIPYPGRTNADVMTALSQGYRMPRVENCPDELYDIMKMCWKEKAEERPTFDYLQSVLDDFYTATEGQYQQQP

CN(C)C(=O)Cn1cc(-c2nc([C@@](C)(c3ccc(-c4cnc(N)nc4)cc3)C3CC3)no2)cn1 [BI 665915]
inactive: [1] 89% | [2] 96.5% | [3] 99%
